According to paper PMC11212140, “Molecular Bidents with Two Electrophilic Warheads as a New Pharmacological Modality” (ACS Central Science, 2024):

Key:
PRP4 = tested on: T1, PRP4; test: KiNativ profiling in H3255 cells; assay type: cell-based, human; conditions: 2.5 µM; Lys2; CNILHADIKPDNILVNESK
T1 construct: purchased ActivX Biosciences (KiNativ)

MKK7 = target: T2, MKK7 (Homo sapiens, UniProt O14733); test: MKK7 binding, KdELECT assays (DiscoverX); conditions: KdELECT
T2 construct: purchased DiscoverX
T2 sequence (O14733 1-419): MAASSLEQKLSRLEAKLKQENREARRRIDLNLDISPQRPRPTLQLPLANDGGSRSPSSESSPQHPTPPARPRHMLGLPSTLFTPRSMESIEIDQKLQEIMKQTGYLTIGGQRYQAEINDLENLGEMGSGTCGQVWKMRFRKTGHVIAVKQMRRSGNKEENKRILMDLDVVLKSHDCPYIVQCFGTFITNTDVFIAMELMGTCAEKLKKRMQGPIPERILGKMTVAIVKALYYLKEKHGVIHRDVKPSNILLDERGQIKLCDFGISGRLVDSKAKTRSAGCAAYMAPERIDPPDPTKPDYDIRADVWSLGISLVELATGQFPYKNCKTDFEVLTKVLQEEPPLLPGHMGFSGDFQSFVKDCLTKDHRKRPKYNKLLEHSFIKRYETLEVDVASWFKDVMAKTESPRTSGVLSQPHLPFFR
Description: Figure 2 ZNL-8162 is a molecular bident for MKK7. (A) Compound structures for MKK7-targeting molecular bident (ZNL-8162) and its relatives lacking one or both cysteine-reactive groups. (B) Covalent modeling for ZNL-8162 engagement of MKK7(PDB: 6YG3). (C) MS/MS spectrum of ZNL-8162 covalently modifying Cys218 and Cys276 of MKK7. Red and yellow circles indicate ions of type y for sequences marked (1) and (2), respectively. Blue circles indicate ions of b for sequence (1). *, carbamidomethyl cysteine, Δ, oxidized methionine. (D) MKK7 binding data were obtained from KdELECT assays (DiscoverX). Data are presented as mean ± s.d. of n = 2 biologically independent samples.
Table S2. […]

[1] = tested on: panel of 468 human kinases; conditions: 1 μM
Method: KinomeScan profiling for ZNL-0056 at 1 μM against a panel of 468 human kinases. The results
for the binding interactions are reported as “% Ctrl”, where larger circles indicate stronger hits.
The selectivity score was defined as the ratio of the number of kinases inhibited to a specified
percentage versus the total number of kinases. For this experiment, specified percent inhibition

[2] = tested on: phosphorylation of EGFR, ERK1/2, and AKT; test: Immunoblot of EGFR signaling pathway in H3255 cells; assay type: cell-based, human; conditions: H3255, 6 h treatment
Method: (A) Dose–response curves for ZNL-0056 and osimertinib in H3255 cells following 72 h of treatment. Cell viability was assessed with CellTiter-Glo. Data are presented as the mean ± SEM (n = 4). Representative data from three independent experiments are shown. (B) Immunoblot assessment of the effect of ZNL-0056 on EGFR signaling pathway in H3255 cells after 6 h treatment. Representative blots from two independent experiments are shown. […] TEXT PRINTED IN THE PICTURE: (A) ZNL-0056: H3255: IC50 (nM): 471.3 | (A) Osimertinib: H3255: IC50 (nM): 27.76 […]
For infection of Ba/F3 cells, 2.5 mL of viral supernatant and 8 μg/mL polybrene was added to 2.5 million cells per well in six-well plates. The plate was centrifuged at 2500 rpm for 90 minutes at 37 °C for the spin infection. […]
Cells were lysed in RIPA buffer (150 mM NaCl, 1.0% IGEPAL® CA-630, 0.5% sodium deoxycholate, 0.1% SDS, 50 mM Tris, pH 8.0) (Sigma, Cat# R0278) with protease inhibitor and phosphatase inhibitor (Roche). The protein concentrations were measured by BCA analysis (Thermo Fisher Scientific, Cat # PI23225). […]
or IRDye 680RD goat anti-Mouse IgG (LICOR Biosciences , Cat # 926-68070) secondary antibodies at room temperature for 1 hour. The membranes were detected on Odyssey CLx system. […]

[3] = In vivo pharmacokinetics in mice; conditions: male C57BL/6 mice
Method: To address this question, we tested the GSH reactivity of ZNL-0056 (Table S3) and its in vivo pharmacokinetic (PK) properties using three routes of administration including: 1 mg/kg IV, 3 mg/kg IP, and 10 mg/kg PO in male C57BL/6 mice (Table S4).
Table S4. Effect of ZNL-0056 in vivo- PK Parameters
Dose: 1mg/Kg IV, 3mg/Kg IP, 10mg/Kg PO. Formulation: 0.1mg/mL(IV) and 0.3mg/mL (IP)
and 1mg/mL (PO) solution in 5/25/70 EtOH/PEG300/D5W. […]

| SMILES | Inhibition (PRP4) | Kd (MKK7) | selectivity score S (10) [1] | concentration inhibiting phosphorylation of EGFR, ERK1/2, and AKT (as low as) [2] | area under the curve ([3]; 1 mg/kg IV) | average maximal plasma concentration ([3]; 3 mg/kg IP) | area under the curve ([3]; 10 mg/kg PO) | average maximal plasma concentration ([3]; 10 mg/kg PO) | half-life ([3]; mouse, plasma, 1 mg/kg IV) | bioavailability ([3]; mouse, plasma, 10 mg/kg PO) |
| --- | --- | --- | --- | --- | --- | --- | --- | --- | --- | --- |
| C=CC(=O)Nc1cc(Nc2nccc(-c3cn(C)c4ccccc34)n2)c(OC)cc1N(C)CCN(C)C [Osimertinib, osimertinib, reference compound] | -3.8% |  |  |  |  |  |  |  |  |  |
| C=CC(=O)Nc1cc(C(=O)Nc2nc3cccc(C)c3n2[C@@H]2CCCCN(C(=O)C=C)C2)cs1 [ZNL-0056] |  | 36 nM | 0.05 | 0.1 µM | 21 820 min·ng/mL | 1.3 µmol/L | 63 341 min·ng/mL | 1.4 µmol/L | 19.8 min | 24% |
